How the values were obtained:
[1] = target: T1, Receptor-type tyrosine-protein phosphatase C (Homo sapiens, UniProt P08575); design: species or system Escherichia coli;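 note: inhibition of CD45 enzyme activity measured using DiFMUP as substrate; in other assays of this panel Not Active means under 50% inhibition at 10 µM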
T1 sequence (P08575 whole entry): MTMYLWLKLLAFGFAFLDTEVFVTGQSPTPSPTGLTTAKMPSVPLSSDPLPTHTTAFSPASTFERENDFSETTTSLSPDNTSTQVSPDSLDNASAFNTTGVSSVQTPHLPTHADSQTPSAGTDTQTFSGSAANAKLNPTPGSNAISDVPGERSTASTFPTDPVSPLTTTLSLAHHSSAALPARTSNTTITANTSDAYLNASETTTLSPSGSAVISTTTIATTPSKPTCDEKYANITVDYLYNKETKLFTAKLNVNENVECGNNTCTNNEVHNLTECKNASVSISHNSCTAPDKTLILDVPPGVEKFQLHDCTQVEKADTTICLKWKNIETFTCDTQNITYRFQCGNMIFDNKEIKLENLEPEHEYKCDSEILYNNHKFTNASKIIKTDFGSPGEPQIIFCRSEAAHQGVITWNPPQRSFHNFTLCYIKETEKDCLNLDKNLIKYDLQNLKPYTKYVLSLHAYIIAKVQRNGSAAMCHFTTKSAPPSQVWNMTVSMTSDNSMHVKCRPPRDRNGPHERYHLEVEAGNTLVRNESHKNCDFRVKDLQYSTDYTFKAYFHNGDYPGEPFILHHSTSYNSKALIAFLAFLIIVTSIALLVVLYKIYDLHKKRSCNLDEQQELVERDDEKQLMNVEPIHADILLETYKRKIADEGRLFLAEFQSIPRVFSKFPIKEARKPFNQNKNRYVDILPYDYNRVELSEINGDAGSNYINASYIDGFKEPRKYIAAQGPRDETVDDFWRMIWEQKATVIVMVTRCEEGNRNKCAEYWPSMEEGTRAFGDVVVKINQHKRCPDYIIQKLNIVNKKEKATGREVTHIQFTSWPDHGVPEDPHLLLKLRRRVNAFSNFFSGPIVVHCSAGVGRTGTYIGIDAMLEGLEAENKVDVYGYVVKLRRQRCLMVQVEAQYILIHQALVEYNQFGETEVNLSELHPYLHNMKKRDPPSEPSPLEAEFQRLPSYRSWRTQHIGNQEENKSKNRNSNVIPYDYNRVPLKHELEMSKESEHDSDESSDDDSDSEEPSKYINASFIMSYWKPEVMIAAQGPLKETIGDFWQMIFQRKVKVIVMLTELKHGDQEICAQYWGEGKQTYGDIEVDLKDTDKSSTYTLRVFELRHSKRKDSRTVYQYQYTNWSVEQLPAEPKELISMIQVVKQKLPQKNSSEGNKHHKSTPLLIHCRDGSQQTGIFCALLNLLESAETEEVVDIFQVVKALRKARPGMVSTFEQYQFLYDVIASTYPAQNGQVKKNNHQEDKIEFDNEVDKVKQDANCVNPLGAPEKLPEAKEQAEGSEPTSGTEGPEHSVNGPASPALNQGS

[2] = target: T2, Angiotensin-converting enzyme (Oryctolagus cuniculus, UniProt P12822); assay type: tissue-based, Lung;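 note: enzymatic inhibition of angiotensin-converting enzyme measured with FAPGG as the substrate; in other assays of this panel Not Active means under 50% inhibition at 10 µM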
T2 sequence (P12822 whole entry): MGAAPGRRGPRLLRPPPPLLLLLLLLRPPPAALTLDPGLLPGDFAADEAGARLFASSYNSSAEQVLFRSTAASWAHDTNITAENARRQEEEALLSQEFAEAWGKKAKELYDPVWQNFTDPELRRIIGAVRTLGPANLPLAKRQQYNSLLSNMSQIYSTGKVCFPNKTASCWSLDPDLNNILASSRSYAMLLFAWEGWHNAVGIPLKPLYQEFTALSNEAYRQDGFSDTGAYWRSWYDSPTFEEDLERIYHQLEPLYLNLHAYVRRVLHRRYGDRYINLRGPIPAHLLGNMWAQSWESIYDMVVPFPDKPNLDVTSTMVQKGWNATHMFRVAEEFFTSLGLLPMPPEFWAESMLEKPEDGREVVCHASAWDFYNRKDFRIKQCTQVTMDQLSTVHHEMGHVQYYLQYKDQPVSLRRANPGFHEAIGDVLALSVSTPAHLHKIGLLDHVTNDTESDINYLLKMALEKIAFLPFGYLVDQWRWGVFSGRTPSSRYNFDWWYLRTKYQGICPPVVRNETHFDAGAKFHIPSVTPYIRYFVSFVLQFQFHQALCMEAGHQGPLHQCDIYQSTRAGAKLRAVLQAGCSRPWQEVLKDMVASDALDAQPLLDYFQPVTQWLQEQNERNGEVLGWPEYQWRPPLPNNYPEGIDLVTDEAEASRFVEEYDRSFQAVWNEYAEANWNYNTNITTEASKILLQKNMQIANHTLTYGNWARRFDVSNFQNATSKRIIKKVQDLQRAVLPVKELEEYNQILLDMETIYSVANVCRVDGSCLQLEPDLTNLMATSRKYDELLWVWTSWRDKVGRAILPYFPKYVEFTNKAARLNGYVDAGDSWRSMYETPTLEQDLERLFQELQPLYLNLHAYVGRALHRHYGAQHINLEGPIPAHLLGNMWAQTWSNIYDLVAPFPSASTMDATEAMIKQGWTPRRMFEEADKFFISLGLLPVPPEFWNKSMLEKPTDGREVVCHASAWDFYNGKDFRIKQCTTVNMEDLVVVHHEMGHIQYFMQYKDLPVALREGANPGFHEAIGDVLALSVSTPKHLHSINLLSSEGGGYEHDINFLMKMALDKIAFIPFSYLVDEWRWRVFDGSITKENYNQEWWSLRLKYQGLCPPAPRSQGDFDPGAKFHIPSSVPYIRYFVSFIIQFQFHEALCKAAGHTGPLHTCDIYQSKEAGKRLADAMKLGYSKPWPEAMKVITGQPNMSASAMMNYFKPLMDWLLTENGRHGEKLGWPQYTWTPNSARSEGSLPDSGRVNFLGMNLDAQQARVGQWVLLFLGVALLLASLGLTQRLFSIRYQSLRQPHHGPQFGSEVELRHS

[3] = target: Aldo-keto reductase family 1 member B1 (Rattus norvegicus, UniProt P07943); assay: biochemical; assay type: tissue-based, Lens of camera-type eye;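 note: inhibition of aldose reductase enzyme activity, measured with DL-glyceraldehyde as the substrate; in other assays of this panel Not Active means under 50% inhibition at 10 µM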
[4] = DRUGMATRIX: Purinergic P2X radioligand binding (ligand: [3H] alpha, beta-Methylene-ATP); assay type: cell membranes, Oryctolagus cuniculus, New Zealand albino, Urinary bladder, Membrane; settings: Not Active = under 50% inhibition at 10 µM
Melanocortin receptor 4 = Melanocortin receptor 4 (Homo sapiens, UniProt P32245); assay type: cell membranes, Membrane; settings: hek293; note: in other assays of this panel Not Active means under 50% inhibition at 10 µM
Chain of Melanocortin receptor 4 (P32245 whole entry): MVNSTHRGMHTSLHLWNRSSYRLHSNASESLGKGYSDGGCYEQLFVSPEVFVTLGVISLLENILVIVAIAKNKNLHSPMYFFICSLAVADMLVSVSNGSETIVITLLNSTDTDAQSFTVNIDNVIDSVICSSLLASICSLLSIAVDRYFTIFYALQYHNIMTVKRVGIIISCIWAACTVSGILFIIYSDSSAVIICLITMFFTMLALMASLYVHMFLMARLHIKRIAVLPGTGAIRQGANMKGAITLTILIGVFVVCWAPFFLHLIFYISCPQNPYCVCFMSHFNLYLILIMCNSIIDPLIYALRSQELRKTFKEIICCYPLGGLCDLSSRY

[5] = target: Protein phosphatase 3 catalytic subunit alpha (Homo sapiens, UniProt Q08209); design: species or system Escherichia coli
[6] = DRUGMATRIX: Calcium Channel Type L, Benzothiazepine radioligand binding (ligand: [3H] Diltiazem); assay type: cell membranes, Rattus norvegicus, Wistar, Brain, Membrane; settings: Not Active = under 50% inhibition at 10 µM

| SMILES | IC50 [1] | IC50 [2] | IC50 [3] | IC50 [4] | Ki [4] | IC50 (Melanocortin receptor 4) | IC50 [5] | IC50 [6] | Ki [6] | IC50 ([3]; read-out: IC50) [µM] |
| --- | --- | --- | --- | --- | --- | --- | --- | --- | --- | --- |
| C[C@H]1O[C@@H](O[C@H]2[C@@H](O)C[C@H](O[C@H]3[C@@H](O)C[C@H](O[C@H]4CC[C@@]5(C)[C@H](CC[C@@H]6[C@@H]5CC[C@]5(C)[C@@H](C7=CC(=O)OC7)CC[C@]65O)C4)O[C@@H]3C)O[C@@H]2C)C[C@H](O)[C@@H]1O [DIGITOXIN] | Not Active | Not Active | Not Active | Not Active | Not Active | Not Active | Not Active | Not Active | Not Active | – |
| CCN1CC(CCN2CCOCC2)C(c2ccccc2)(c2ccccc2)C1=O (centres undefined) [DOXAPRAM] | Not Active | Not Active | Not Active | Not Active | Not Active | Not Active | Not Active | Not Active | Not Active | – |
| Cn1c(=O)c2c(ncn2CC2OCCO2)n(C)c1=O [DOXOFYLLINE] | Not Active | Not Active | Not Active | Not Active | Not Active | Not Active | Not Active | Not Active | Not Active | – |
| COc1cccc2c1C(=O)c1c(O)c3c(c(O)c1C2=O)C[C@@](O)(C(=O)CO)C[C@@H]3O[C@H]1C[C@H](N)[C@H](O)[C@H](C)O1 [DOXORUBICIN] | Not Active | Not Active | Not Active | Not Active | Not Active | Not Active | Not Active | Not Active | Not Active | – |
| COc1cccc2c1C(=O)c1c(O)c3c(c(O)c1C2=O)C[C@@](O)(C(=O)CO)C[C@@H]3O[C@H]1C[C@H](N)[C@@H](O)[C@H](C)O1 [EPIRUBICIN] | Not Active | Not Active | Not Active | Not Active | Not Active | Not Active | Not Active | Not Active | Not Active | – |
| C[C@]12CC[C@@H]3c4ccc(OC(=O)c5ccccc5)cc4CC[C@H]3[C@@H]1CC[C@@H]2O [ESTRADIOL BENZOATE] | Not Active | Not Active | Not Active | Not Active | Not Active | Not Active | Not Active | Not Active | Not Active | – |
| C[C@]12CC[C@@H]3c4ccc(O)cc4CC[C@H]3[C@@H]1CC[C@@H]2O [ESTRADIOL] | Not Active | Not Active | Not Active | Not Active | Not Active | Not Active | Not Active | Not Active | Not Active | – |
| CC[C@@H](CO)NCCN[C@@H](CC)CO [ETHAMBUTOL] | Not Active | Not Active | Not Active | Not Active | Not Active | Not Active | Not Active | Not Active | Not Active | – |
| CC1(C)O[C@@H]2C[C@H]3[C@@H]4C[C@H](F)C5=CC(=O)C=C[C@]5(C)[C@H]4[C@@H](O)C[C@]3(C)[C@]2(C(=O)CO)O1 [FLUNISOLIDE] | Not Active | Not Active | Not Active | Not Active | Not Active | Not Active | Not Active | Not Active | Not Active | – |
| CC1(C)O[C@@H]2C[C@H]3[C@@H]4C[C@H](F)C5=CC(=O)C=C[C@]5(C)[C@@]4(F)[C@@H](O)C[C@]3(C)[C@]2(C(=O)CO)O1 [FLUOCINOLONE ACETONIDE] | Not Active | Not Active | Not Active | Not Active | Not Active | Not Active | Not Active | Not Active | Not Active | – |
| CC1(C)O[C@@H]2C[C@H]3[C@@H]4C[C@H](F)C5=CC(=O)CC[C@]5(C)[C@H]4[C@@H](O)C[C@]3(C)[C@]2(C(=O)CO)O1 [FLURANDRENOLIDE] | Not Active | Not Active | Not Active | Not Active | Not Active | Not Active | Not Active | Not Active | Not Active | – |
| CN(C)c1ccc(C(=C2C=CC(=[N+](C)C)C=C2)c2ccc(N(C)C)cc2)cc1.[Cl-] [GENTIAN VIOLET] | Not Active | Not Active | Not Active | Not Active | Not Active | Not Active | Not Active | Not Active | Not Active | – |
| Cc1ccc(S(=O)(=O)NC(=O)NN2CC3CCCC3C2)cc1 (centres undefined) [GLICLAZIDE] | Not Active | Not Active | Not Active | Not Active | Not Active | Not Active | Not Active | Not Active | Not Active | – |
| NC(=O)NO [HYDROXYUREA] | Not Active | Not Active | Not Active | Not Active | Not Active | Not Active | Not Active | Not Active | Not Active | – |
| CC(C)Cc1ccc(C(C)C(=O)O)cc1 (centres undefined) [IBUPROFEN] | Not Active | Not Active | Not Active | Not Active | Not Active | Not Active | Not Active | Not Active | Not Active | – |
| COc1ccc2c(c1)c(CC(=O)O)c(C)n2C(=O)c1ccc(Cl)cc1 [INDOMETHACIN] | Not Active | Not Active | – | Not Active | Not Active | Not Active | Not Active | Not Active | Not Active | 3.63 |

Reference: ChEMBL document CHEMBL1909046, “DrugMatrix in vitro pharmacology data”
